Experimental data as given in patent US20160052887A1, “PHARMACEUTICALLY ACCEPTABLE AMINE SALTS OF PITAVASTATIN” (DSM SINOCHEM PHARMACEUTICALS NETHERLANDS B.V., priority 2013, published 2016).
Where a name gives a salt, the structure may show the parent alone.

Columns and labels:
[1] = Solubility of pitavastatin salts in buffers of pH 1.2 and pH 4.8; format: physicochemical; settings: for Appearance: appearance of the mixture at the reported pH and amount of salt added
From the text: The pharmaceutically acceptable pitavastatin salts obtained above were subjected to solubility measurements. […] Amounts of added salt were increased as long as the resulting solution remained clear and the resulting pH value, as well as the total amount of salt added, are reported in the below Table.
The following observations were made. The solubility of pitavastatin calcium salt is very low, initially the compound floated on the buffer. In contrast, the solubility of the amine salts was much higher; in many cases solutions were still clear after more than 160 mg·g^−1 solution was added. For the amine salts, pH values increased to values as reported in the Table upon increasing addition of salt (indicating exhaustion of buffer capacity due to high salt solubility). […] Qualitatively, the speed of dissolution of the amine salts was much faster than the speed of dissolution of the calcium salt. The pitavastatin amine salts were not hygroscopic (qualitative determination).

[2] = Basic toxicological evaluation

SMILES | Appearance [1] | further results
O=C(O)C[C@H](O)C[C@H](O)/C=C/c1c(C2CC2)nc2ccccc2c1-c1ccc(F)cc1 [L-Lysine salt, pitavastatin-lysine salt] |  | Solubility (observation in words) ([1]; starting with a buffer of pH 4.8 (entry at pH 4.5)): very low
O=C(O)C[C@H](O)C[C@H](O)/C=C/c1c(C2CC2)nc2ccccc2c1-c1ccc(F)cc1 [Choline salt, pitavastatin-choline salt] | Clear | 
NCc1ccco1 [1-furfurylamine] |  | Toxicological classification [2]: very safe
O=C(O)C[C@H](O)C[C@H](O)/C=C/c1c(C2CC2)nc2ccccc2c1-c1ccc(F)cc1 [Tris(hydroxymethyl)-aminomethane salt, pitavastatin-tris(hydroxymethyl)aminomethane salt] | Clear | 
NCc1ccco1.O=C(O)C[C@H](O)C[C@H](O)/C=C/c1c(C2CC2)nc2ccccc2c1-c1ccc(F)cc1 [Furfurylamine salt, pitavastatin-furfuryl amine salt] | Suspension | 
O=C(O)C[C@H](O)C[C@H](O)/C=C/c1c(C2CC2)nc2ccccc2c1-c1ccc(F)cc1 [Calcium salt, pitavastatin-Ca, reference compound] | Suspension | Solubility (observation in words) ([1]; aqueous buffers): very low
